Earlier results as cited in patent US11142559B2, “Glucagon derivative, conjugate thereof, composition comprising same, and therapeutic use thereof” (HANMI PHARM. CO., LTD, priority 2016, dated 2021).

Conditions: when taken for one year, according to a report

## CCCCCCCCCCC[C@@H](C[C@@H]1OC(=O)[C@H]1CCCCCC)OC(=O)[C@H](CC(C)C)NC=O [Orlistat]
  weight loss: about 4 kg
